The target in test [1] is Trace amine-associated receptor 1 (Rattus norvegicus, UniProt Q923Y9). Nature of the test: (§1) Radioligand Binding Assay: HEK-293 cells stably expressing rat TAAR1 were maintained at 37 C and 5% CO2 in DMEM high glucose medium, containing fetal calf serum (10%, heat inactivated for 30 min at 56 C), penicillin/streptomycin (1%), and 375 ug/ml geneticin (Gibco). Cells were released from culture flasks using trypsin/ EDTA, harvested, washed twice with ice-cold PBS (without Ca2+ and Mg2+), pelleted at 1,000 rpm for 5 min at 4 C, frozen and stored at -80 C. Frozen pellets were suspended in 20 ml HEPES-NaOH (20 mM, pH 7.4) containing 10 mM EDTA and homogenized with a Polytron (PT 6000, Kinematica) at 14,000 rpm for 20 s. The homogenate was centrifuged at 48,000 x g for 30 min at 4 C. Subsequently, the supernatant was removed and discarded, and the pellet resuspended in 20 ml HEPES-NaOH (20 mM, pH 7.4) containing 0.1 mM EDTA using the Polytron (20 s at 14,000 rpm). This procedure was repeated and the final pellet resuspended in HEPES-NaOH containing 0.1 mM EDTA. The class given is cell-based, HEK293.

Test [2] has as its target Trace amine-associated receptor 1 (Mus musculus, UniProt Q923Y8). The description is as §1, with “Assay: Membrane Preparation and Radioligand Binding.” for “Assay:”, “mouse TAA 1” for “rat TAAR1”, “C02” for “CO2”, “rpm).” for “rpm). This procedure was repeated and the final pellet resuspended in HEPES-NaOH containing 0.1 mM EDTA.”. Format: cell membranes, HEK293.

Sequence of Trace amine-associated receptor 1 (Mus musculus, UniProt Q923Y8) (Q923Y8 whole entry): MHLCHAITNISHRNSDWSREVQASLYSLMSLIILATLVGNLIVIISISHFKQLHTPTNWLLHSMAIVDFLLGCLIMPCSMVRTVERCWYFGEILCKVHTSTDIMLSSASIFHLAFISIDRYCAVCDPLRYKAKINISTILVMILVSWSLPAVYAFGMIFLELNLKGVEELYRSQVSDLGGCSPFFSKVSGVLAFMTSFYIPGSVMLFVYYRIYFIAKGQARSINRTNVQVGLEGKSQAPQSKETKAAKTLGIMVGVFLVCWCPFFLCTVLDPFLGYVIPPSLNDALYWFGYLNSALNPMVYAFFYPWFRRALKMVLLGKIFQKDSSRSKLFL
Sequence of Trace amine-associated receptor 1 (Rattus norvegicus, UniProt Q923Y9) (Q923Y9 whole entry): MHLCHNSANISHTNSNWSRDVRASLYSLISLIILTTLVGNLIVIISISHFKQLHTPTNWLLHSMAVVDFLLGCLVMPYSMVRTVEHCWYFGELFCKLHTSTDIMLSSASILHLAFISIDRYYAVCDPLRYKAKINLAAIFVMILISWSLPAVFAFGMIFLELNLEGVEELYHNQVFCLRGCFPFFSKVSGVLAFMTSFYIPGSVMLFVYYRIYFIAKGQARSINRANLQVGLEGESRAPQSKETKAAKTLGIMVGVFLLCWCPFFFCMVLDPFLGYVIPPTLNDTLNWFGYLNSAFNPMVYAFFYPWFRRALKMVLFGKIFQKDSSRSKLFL

With `CCOc1ccc(C#N)cc1NC(=O)Nc1ccc([C@H]2CNCCO2)cc1F`, the Ki turned out to be 1.9 nM in test [1] and 1.8 nM in test [2].

On to `N#Cc1cc(Cl)cc(C(=O)Nc2ccc([C@H]3CNCCO3)cc2F)n1`, for which the Ki in test [1] is 93.8 nM; in test [2] it was 6.3 nM.

For `N#Cc1ccnc(C(=O)Nc2ccc([C@@H]3CNCCO3)cc2F)c1`, the Ki in test [1] came out at 32.5 nM; in test [2] it was 5 nM.

In the case of `O=C(Nc1ccc([C@H]2CNCCO2)c(F)c1)c1cnn(-c2ccc(OC(F)F)cc2)c1`, the results for the Ki in test [1] and in test [2] were 0.7 nM and 0.6 nM, respectively.

Turning to `O=C(Nc1ccc([C@H]2CNCCO2)c(F)c1)c1cnn(-c2ccnc(C(F)(F)F)n2)c1`, the Ki in test [1] was found to be 3.6 nM; in test [2], 8 nM.

Take `O=C(Nc1ccc([C@H]2CNCCO2)c(F)c1)c1cnn(-c2cnc(C(F)(F)F)cn2)c1`: the values for the Ki in test [1] and in test [2] were 4 nM and 4.8 nM, respectively.

As to `N#Cc1cccc(CNC(=O)Nc2ccc([C@H]3CNCCO3)cc2F)c1`, the Ki in test [1] was determined as 67.9 nM; in test [2], 3.1 nM.

With `N#Cc1ccc(C(=O)Nc2ccc([C@H]3CNCCO3)cc2Cl)nc1`, the Ki in test [1] came to 154 nM; in test [2] it was 6.3 nM.

For the compound `N#Cc1cccc(C(=O)Nc2ccc([C@H]3CNCCO3)cc2Cl)n1`, the Ki came out at 565 nM in test [1] and 27.6 nM in test [2].

With `N#Cc1cccc(C(=O)Nc2ccc([C@@H]3CNCCO3)cc2Cl)n1`, the values for the Ki in test [1] and in test [2] were 184 nM and 82.4 nM, respectively.

For `N#Cc1ccc(C(=O)Nc2ccc([C@H]3CNCCO3)cc2Cl)cn1`, the results for the Ki in test [1] and in test [2] were 524 nM and 17 nM, respectively.

On to `N#Cc1ccc(C(=O)Nc2ccc([C@@H]3CNCCO3)cc2Cl)nc1`, for which the values for the Ki in test [1] and in test [2] were 20.2 nM and 12 nM, respectively.

Turning to `N#Cc1cccc(C(=O)Nc2ccc([C@H]3CNCCO3)cc2F)n1`, the results for the Ki in test [1] and in test [2] were 959 nM and 9.7 nM, respectively.

On to `COc1ccc(C#N)cc1NC(=O)Nc1ccc([C@@H]2CNCCO2)cc1F`, for which the Ki in test [1] was found to be 5.9 nM; in test [2], 4.4 nM.

For the compound `CCOc1ccc(C#N)cc1NC(=O)Nc1ccc([C@@H]2CNCCO2)cc1F`, the Ki in test [1] worked out at 3.9 nM; in test [2] it was 3.1 nM.

For `N#Cc1ccc(C(=O)Nc2ccc([C@@H]3CNCCO3)cc2Cl)cn1`, the Ki in test [1] stood at 410 nM; in test [2] it was 25.9 nM.

The values above are taken from ChEMBL document CHEMBL3638970, “Substituted benzamide derivatives” (2015).
